The source of these data is patent publication US8304422B2, “Compositions and methods for inhibition of the JAK pathway” (Rigel Pharmaceuticals, Inc., priority 2007, dated 2012).

This assay has as its system BaF3 V617F cells; UKE-1. As to the kind of experiment: Proliferation Assay (Cell Titer-Glo; Example 7). In kind it is cell-based. The following applies: proliferation 72 hours, inhibit JAK2 activity, cell line (BaF3 V617F or UKE-1) not stated. The gist of the method: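 Proliferation IC50s reflect 72 h compound exposure at 37 °C, read by Cell Titer-Glo luminescence. Compound was serially diluted 3-fold from a 5 mM DMSO stock and added as a 2× solution; BaF3 V617F cells were grown in RPMI/10% FBS, UKE-1 in Iscove's DMEM with FBS, equine serum and hydrocortisone.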

Compound `COc1cc(Nc2ncc(C)c(Nc3ccc(CNS(=O)(=O)N(C)C)cc3)n2)cc(C)c1OC` [II-100, 4-[(4-(Dimethylamino)sulfonylamino)methylphenyl]-N2-(3,4-dimethoxy-5-methylphenyl)-5-methyl-2,4-pyrimidinediamine] yielded an IC50 of 0.179 µM.
The figure for `COc1cc(C)c(Nc2ncc(C)c(Nc3ccc(CCNS(=O)(=O)C4CC4)cc3)n2)c(C)c1` [II-62] is 0.438 µM.
`O=S(=O)(NCc1ccc(Nc2nc(Nc3ccc(CN4CCOCC4)cc3)ncc2Cl)cc1)C1CC1` [II-223, 5-Chloro-N4-[4-(N-cyclopropylsulfonylamino)methylphenyl]-N2-[4-(1-morpholinomethyl)phenyl]-2,4-pyrimidinediamine] displayed a half-maximal inhibitory concentration (IC50) of 0.733 µM.
The figure for `CCCOc1c(C)cc(Nc2ncc(Cl)c(Nc3ccc(CNS(=O)(=O)NC4CC4)cc3)n2)cc1C` [II-157, 5-Chloro-N4-[4-((N-cyclopropylamino)sulfonylamino)methylphenyl]-N2-(3,5-dimethyl-4-propoxyphenyl)-2,4-pyrimidinediamine] is 0.138 µM; for `COc1c(C)cc(Nc2ncc(C)c(Nc3ccc4c(c3)CCN(S(=O)(=O)C3CC3)C4)n2)cc1C` [VIII-9, N4-[(N-cyclopropylsulfonyl)-1,2,3,4-tetrahydroisoquinolin-6-yl]-N2-(3,5-dimethyl-4-methoxy)phenyl-5-methyl-2,4-pyrimidinediamine] it is 0.179 µM; for `Cc1cnc(Nc2ccc(N3CCN(C4CC5CCC4C5)CC3)cc2)nc1Nc1ccc(CNS(=O)(=O)C2CC2)cc1` (stereo not drawn) [II-60, N-(4-(2-(4-(4-(bicyclo[2.2.1]heptan-2-yl)piperazin-1-yl)phenylamino)-5-methylpyrimidin-4-ylamino)benzyl)cyclopropanesulfonamide] it is 0.391 µM.
In the case of “5-Chloro-N4[4-(N-cyclopropylsulfonylamino)ethylphenyl]-N2-[4-(6-methoxy-2-methyl-methoxy)phenyl]-2,4-pyrimidinediamine [II-50]”, the IC50 was 0.472 µM.
For the compound `CCNS(=O)(=O)NCc1ccc(Nc2nc(Nc3cc(C)c(OC)c(C)c3)ncc2C)cc1` [II-116, N2-(3,5-Dimethyl-4-methoxyphenyl)-N4-[(4-(ethylamino)sulfonylamino)methylphenyl]-5-methyl-2,4-pyrimidinediamine], the IC50 is 0.0737 µM.
As for `COc1cc(Nc2ncc(C)c(Nc3ccc4c(c3)[C@H](NS(C)(=O)=O)CC4)n2)cc(OC)c1OC` [V-9], the figure is 2.2 µM; as for `CCS(=O)(=O)N1CCc2c(cccc2Nc2nc(Nc3ccc(N4CCN(C)CC4)nc3)ncc2Cl)C1` [VI-3, 5-Chloro-N2-[6-(4-methyl-1-piperazinyl)-3-pyridinyl]-N4-[1,2,3,4-tetrahydro-2-(ethylsulfonyl)-5-isoquinolinyl]-2,4-pyrimidinediamine], 1.27 µM.
For `Cc1cc(Nc2ncc(Cl)c(Nc3ccc(CNS(=O)(=O)NC4CC4)cc3)n2)cc(C)c1OC(C)C` [II-156, 5-Chloro-N4-[4-((N-cyclopropylamino)sulfonylamino)methylphenyl]-N2-(3,5-dimethyl-4-(1-methyl)ethoxyphenyl)-2,4-pyrimidinediamine], half-maximal inhibition (IC50) required 0.0581 µM.
Take `COc1c(C)cc(Nc2ncc(Cl)c(Nc3ccc(CNS(=O)(=O)C4CC4)cc3)n2)cc1Cl` [II-80, 5-Chloro-N2-(3-chloro-4-methoxy-5-methylphenyl]-N4-[4-(N-cyclopropylsulfonylamino)methylphenyl]-2,4-pyrimidinediamine]: the IC50 was 0.188 µM.
Turning to `CCNS(=O)(=O)NCc1ccc(Nc2nc(Nc3cc(Cl)c(OC)c(OC)c3)ncc2C)cc1` [II-121, N2-(3-Chloro-4,5-dimethoxyphenyl)-N4-[(4-(ethylamino)sulfonylamino)methylphenyl]-5-methyl-2,4-pyrimidinediamine], half-maximal inhibition (IC50) was put at 0.363 µM.
`CN1CCN(c2ccc(Nc3ncc(Cl)c(Nc4ccc(CNS(=O)(=O)N(C)C)cc4)n3)cc2)CC1` [II-96, 5-Chloro-N4-[(4-(dimethylamino)sulfonylamino)methylphenyl]-N2-[4-(4-methyl-1-piperazinyl)phenyl]-2,4-pyrimidinediamine] registered an IC50 of 0.091 µM.
Take `CN1CCC(c2ccc(Nc3ncc(Cl)c(Nc4cccc(CNS(=O)(=O)C5CC5)c4)n3)cc2)CC1` [II-190, 5-Chloro-N4-[3-(N-cyclopropylsulfonylaminomethyl)phenyl]-N2-[4-(N-methylpiperidin-4-yl)phenyl]-2,4-pyrimidinediamine]: inhibition was half-maximal at 0.701 µM (IC50).
The figure for `Cc1cc(Nc2ncc(C)c(Nc3ccc(CNS(=O)(=O)C4CC4)cc3)n2)ccc1N1CCN(C)CC1` [II-202, 5-Methyl-N4-[4-(N-cyclopropylsulfonylamino)methylphenyl]-N2-[3-methyl-4-(N-methylpiperizin-4-yl)phenyl]-2,4-pyrimidinediamine] is 1.44 µM; for “5-Chloro-N4-[4-(N-cyclopropylsulfonylamino)methylphenyl]-N2-[4-[N-(methansulfonyl)piperizin-4-ylphenyl]-2,4-pyrimidinediamine [II-207]” it is 0.384 µM.
Consider “5-Chloro-N4-[4-[N-(Cyclopropylsulfonyl)-N′-((3-ethoxycarbonyl)propion-1-yl)amino]methylphenyl]-N2-(3,5-dimethyl-4-methoxyphenyl)-2,4-pyrimidinediamine [II-140]”, for which inhibition was half-maximal at 0.251 µM (IC50).
In the case of `CCNS(=O)(=O)NCc1cccc(Nc2nc(Nc3ccc(N4CCN(C)CC4)cc3)ncc2F)c1` [II-138, N4-[3-((Ethylamino)sulfonylamino)methylphenyl]-5-fluoro-N2-[4-(4-methyl-1-piperazinyl)phenyl]-2,4-pyrimidinediamine], the IC50 came out at 0.726 µM.
Take `COc1c(C)cc(Nc2ncc(C)c(Nc3ccc(CNS(=O)(=O)C4CC4)cc3)n2)cc1C` [II-201, 5-Methyl-N4-[4-(N-cyclopropylsulfonylamino)methylphenyl]-N2-[3,5-dimethyl-4-methoxyphenyl]-2,4-pyrimidinediamine]: the IC50 was 0.174 µM.
As for `CCNS(=O)(=O)NCc1ccc(Nc2nc(Nc3cc(C)c(OC)c(OC)c3)ncc2Cl)cc1` [II-109, 5-Chloro-4-[(4-(ethylamino)sulfonylamino)methylphenyl]-N2-(3,4-dimethoxy-5-methylphenyl)-2,4-pyrimidinediamine], the figure is 0.151 µM; as for `COc1cc(Nc2ncc(F)c(Nc3ccc(CNS(=O)(=O)C4CC4)cc3)n2)cc(Cl)c1OC` [II-196, 5-Fluoro-N4-[4-(N-cyclopropylsulfonylamino)methylphenyl]-N2-[3,4-dimethoxy-5-chlorophenyl]-2,4-pyrimidinediamine], 0.597 µM.
`Cc1cnc(Nc2cc(C)c(OC(C)C)c(C)c2)nc1Nc1ccc(CNS(=O)(=O)C2CC2)cc1` [II-219, 5-Methyl-N4-[4-(N-cyclopropylsulfonylamino)methylphenyl]-N2-[3,5-dimethyl-4-(2-propoxy)phenyl]-2,4-pyrimidinediamine] came in with a 50% inhibitory concentration (IC50) of 0.114 µM.
Take `COc1c(C)cc(Nc2ncc(C(F)(F)F)c(Nc3ccc(CNS(=O)(=O)C4CC4)cc3)n2)cc1C` [II-126, N4-[4-(N-Cyclopropylsulfonylamino)methylphenyl]-N2-(3,5-dimethyl-4-methoxyphenyl)-5-trifluoromethyl-2,4-pyrimidinediamine]: the IC50 was 1.51 µM.
“5-Methyl-N4-[4-(N-cyclopropylsulfonylamino)methylphenyl]-N2-[4-(1-morpholinomethyl)phenyl]-2,4-pyrimidinediamine [II-222]”: the IC50 stood at 0.946 µM.
The compound `Cc1cnc(Nc2ccc(OCCN3CC(C)OC(C)C3)cc2)nc1Nc1ccc(CCNS(=O)(=O)C2CC2)cc1` (stereo not drawn) [II-65] registered an IC50 of 0.327 µM.
Regarding `Cc1cc(CNS(=O)(=O)C2CC2)cc(Nc2nc(Nc3ccc(N4CCN(C5CC6CCC5C6)CC4)cc3)ncc2C)c1` (stereo not drawn) [II-77, N-(3-(2-(4-(4-(bicyclo[2.2.1]heptan-2-yl)piperazin-1-yl)phenylamino)-5-methylpyrimidin-4-ylamino)-5-methylbenzyl)cyclopropanesulfonamide], half-maximal inhibition (IC50) required 1.32 µM.
In the case of “5-Chloro-N4-[4-(N-cyclopropylsulfonylamino)methylphenyl]-N2-[4-(N-methylpiperizin-4-yl)phenyl]-2,4-pyrimidinediamine [II-188]”, the IC50 was 0.224 µM.
In turn, `CCc1cnc(Nc2ccc(C3CCN(C)CC3)cc2)nc1Nc1ccc(CNS(=O)(=O)C2CC2)cc1` [II-88, N4-[4-(N-Cyclopropylsulfonylamino)methylphenyl]-5-ethyl-N2-[4-(1-methyl-4-piperidinyl)pheny]-2,4-pyrimidinediamine] registered a concentration for half-maximal inhibition (IC50) of 0.833 µM.
The figure for `Cc1cc(Nc2ncc(C)c(Nc3ccc(CNS(=O)(=O)C4CC4)cc3)n2)ccc1N1C[C@@H]2C[C@H]1CN2C` [II-184, N4-[4-(N-Cyclopropylsulfonylamino)methylphenyl]-5-methyl-N2-[3-methyl-4-[(1S,4S)-5-methyl-2,5-diazabicyclo[2.2.1]hept-2-yl]phenyl]-2,4-pyrimidinediamine] is 0.892 µM.
For `CCOc1c(C)cc(Nc2ncc(Cl)c(Nc3ccc(CNS(N)(=O)=O)cc3)n2)cc1C` [II-147, N4-[4-(Aminosulfonylamino)methylphenyl]-5-chloro-N2-(3,5-Dimethyl-4-ethoxyphenyl)-2,4-pyrimidinediamine], the IC50 was determined as 0.142 µM.
`CCNS(=O)(=O)NCc1ccc(Nc2nc(Nc3ccc(N4CCN(C)CC4)cc3)ncc2Cl)c(C)c1` [II-144, 5-Chloro-N4-[2-methyl-4-(ethylaminosulfonylamino)methylphenyl]-N2-[4-(4-methyl-1-piperazinyl)phenyl]-2,4-pyrimidinediamine] returned a 50% inhibitory concentration (IC50) of 0.549 µM.
`CCNS(=O)(=O)NCc1ccc(Nc2nc(Nc3ccc(N4CCN(CC)CC4)cc3)ncc2C)cc1` [II-125, N4-[(4-(ethylamino)sulfonylamino)methylphenyl]-N2-[4-(4-ethyl-1-piperazinyl)phenyl]-5-methyl-2,4-pyrimidinediamine] showed an IC50 of 0.512 µM.

For orientation: IC50 means the concentration that gives 50% inhibition. Higher therefore signals a need for much substance.
